Assay results published in the supplement of paper PMC10307832.

Assays:
Experiment in all cases: relative viability (nuclei count vs DMSO), 5 days (fraction); higher = more cells survive
NCI-H441 = tested on: NCI-H441
How it was run: (§1)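 Cells from lung cancer lines were seeded into 1536-well plates and, one day later, dosed by pin tool. Treatments were either a single drug or a fixed dose of an anchor drug with five library-drug doses (not always all listed) in √10 steps. After 5 days, nuclei were stained in a one-step fixation (final 0.05% Triton X-100, 1% formaldehyde, 1 ug/ml Hoechst) and counted on 4× images, and relative viability is the treated-to-vehicle nuclei ratio, as the median of duplicate plates.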

NCI-H1355 = tested on: NCI-H1355
How it was run: as §1

NCI-H1975 = tested on: NCI-H1975
How it was run: as §1

LOU-NH91 = tested on: LOU-NH91
How it was run: as §1

HCC-366 = tested on: HCC-366
How it was run: as §1

NCI-H838 = tested on: NCI-H838
How it was run: as §1

NCI-H358 = tested on: NCI-H358
How it was run: as §1

NCI-H1734 = tested on: NCI-H1734
How it was run: as §1

LU99A = tested on: LU99A
How it was run: as §1

NCI-H460 = tested on: NCI-H460
How it was run: as §1

NCI-H1793 = tested on: NCI-H1793
How it was run: as §1

CAL-12T = tested on: CAL-12T
How it was run: as §1

NCI-H2342 = tested on: NCI-H2342
How it was run: as §1

NCI-H1651 = tested on: NCI-H1651
How it was run: as §1

BEN = tested on: BEN
How it was run: as §1

NCI-H1437 = tested on: NCI-H1437
How it was run: as §1

NCI-H2085 = tested on: NCI-H2085
How it was run: as §1

Work on `Nc1ccn([C@@H]2O[C@H](CO)[C@@H](O)[C@@H]2O)c(=O)n1` [Cytarabine] + NC(=O)Nc1cc(-c2cccc(F)c2)sc1C(=O)N[C@H]1CCCNC1 [AZD7762] (partner 0.2 µM) yielded a relative viability (NCI-H441; first compound 0.005 µM) of 0.982, a relative viability (NCI-H441; first compound 0.01581 µM) of 0.912 and a relative viability (NCI-H441; first compound 0.05 µM) of 0.814. It also gave a relative viability (NCI-H441; first compound 0.1581 µM) of 0.306, a relative viability (NCI-H441; first compound 0.5 µM) of 0.211 and a relative viability (NCI-H1355; first compound 0.005 µM) of 0.455. The relative viability (NCI-H1355; first compound 0.01581 µM) was 0.455, the relative viability (NCI-H1355; first compound 0.05 µM) was 0.356 and the relative viability (NCI-H1355; first compound 0.1581 µM) was 0.181. The relative viability (NCI-H1355; first compound 0.5 µM) was 0.188, the relative viability (NCI-H1975; first compound 0.005 µM) was 0.679 and the relative viability (NCI-H1975; first compound 0.01581 µM) was 0.581. It also gave a relative viability (NCI-H1975; first compound 0.05 µM) of 0.388, a relative viability (NCI-H1975; first compound 0.1581 µM) of 0.321 and a relative viability (NCI-H1975; first compound 0.5 µM) of 0.234. The relative viability (LOU-NH91; first compound 0.005 µM) was 0.645, the relative viability (LOU-NH91; first compound 0.01581 µM) was 0.803 and the relative viability (LOU-NH91; first compound 0.05 µM) was 0.708. The relative viability (LOU-NH91; first compound 0.1581 µM) was 0.548, the relative viability (LOU-NH91; first compound 0.5 µM) was 0.252 and the relative viability (HCC-366; first compound 0.005 µM) was 0.139. For the same molecule, the relative viability (HCC-366; first compound 0.01581 µM) was 0.0915, the relative viability (HCC-366; first compound 0.05 µM) was 0.107 and the relative viability (HCC-366; first compound 0.1581 µM) was 0.0525. The relative viability (HCC-366; first compound 0.5 µM) was 0.038, the relative viability (NCI-H838; first compound 0.005 µM) was 0.738 and the relative viability (NCI-H838; first compound 0.01581 µM) was 0.699. It also gave a relative viability (NCI-H838; first compound 0.05 µM) of 0.665, a relative viability (NCI-H838; first compound 0.1581 µM) of 0.652 and a relative viability (NCI-H838; first compound 0.5 µM) of 0.631. It also gave a relative viability (NCI-H358; first compound 0.005 µM) of 0.419, a relative viability (NCI-H358; first compound 0.01581 µM) of 0.229 and a relative viability (NCI-H358; first compound 0.05 µM) of 0.208. It also gave a relative viability (NCI-H358; first compound 0.1581 µM) of 0.221, a relative viability (NCI-H358; first compound 0.5 µM) of 0.182 and a relative viability (NCI-H1734; first compound 0.005 µM) of 0.258. The relative viability (NCI-H1734; first compound 0.01581 µM) was 0.172, the relative viability (NCI-H1734; first compound 0.05 µM) was 0.159 and the relative viability (NCI-H1734; first compound 0.1581 µM) was 0.0997. The relative viability (NCI-H1734; first compound 0.5 µM) was 0.102, the relative viability (LU99A; first compound 0.005 µM) was 0.444 and the relative viability (LU99A; first compound 0.01581 µM) was 0.362. It also gave a relative viability (LU99A; first compound 0.05 µM) of 0.305, a relative viability (LU99A; first compound 0.1581 µM) of 0.352 and a relative viability (LU99A; first compound 0.5 µM) of 0.115. The relative viability (NCI-H460; first compound 0.005 µM) was 0.209, the relative viability (NCI-H460; first compound 0.01581 µM) was 0.0904 and the relative viability (NCI-H460; first compound 0.05 µM) was 0.0497. It also gave a relative viability (NCI-H460; first compound 0.1581 µM) of 0.0319, a relative viability (NCI-H460; first compound 0.5 µM) of 0.0286 and a relative viability (NCI-H1793; first compound 0.005 µM) of 0.304. It also gave a relative viability (NCI-H1793; first compound 0.01581 µM) of 0.417, a relative viability (NCI-H1793; first compound 0.05 µM) of 0.341 and a relative viability (NCI-H1793; first compound 0.1581 µM) of 0.149. For the same molecule, the relative viability (NCI-H1793; first compound 0.5 µM) was 0.111, the relative viability (CAL-12T; first compound 0.005 µM) was 0.611 and the relative viability (CAL-12T; first compound 0.01581 µM) was 0.405. It also gave a relative viability (CAL-12T; first compound 0.05 µM) of 0.248, a relative viability (CAL-12T; first compound 0.1581 µM) of 0.208 and a relative viability (CAL-12T; first compound 0.5 µM) of 0.221. It also gave a relative viability (NCI-H2342; first compound 0.005 µM) of 0.472, a relative viability (NCI-H2342; first compound 0.01581 µM) of 0.385 and a relative viability (NCI-H2342; first compound 0.05 µM) of 0.397. For the same molecule, the relative viability (NCI-H2342; first compound 0.1581 µM) was 0.377, the relative viability (NCI-H2342; first compound 0.5 µM) was 0.301 and the relative viability (NCI-H1651; first compound 0.005 µM) was 0.484. The relative viability (NCI-H1651; first compound 0.01581 µM) was 0.447, the relative viability (NCI-H1651; first compound 0.05 µM) was 0.297 and the relative viability (NCI-H1651; first compound 0.1581 µM) was 0.114. The relative viability (NCI-H1651; first compound 0.5 µM) was 0.0958, the relative viability (BEN; first compound 0.005 µM) was 0.588 and the relative viability (BEN; first compound 0.01581 µM) was 0.425. The relative viability (BEN; first compound 0.05 µM) was 0.296, the relative viability (BEN; first compound 0.1581 µM) was 0.259 and the relative viability (BEN; first compound 0.5 µM) was 0.241. The relative viability (NCI-H1437; first compound 0.005 µM) was 1.04, the relative viability (NCI-H1437; first compound 0.01581 µM) was 0.549 and the relative viability (NCI-H1437; first compound 0.05 µM) was 0.321. The relative viability (NCI-H1437; first compound 0.1581 µM) was 0.167, the relative viability (NCI-H1437; first compound 0.5 µM) was 0.146 and the relative viability (NCI-H2085; first compound 0.005 µM) was 0.997. The relative viability (NCI-H2085; first compound 0.01581 µM) was 0.997, the relative viability (NCI-H2085; first compound 0.05 µM) was 0.956 and the relative viability (NCI-H2085; first compound 0.1581 µM) was 0.694. The relative viability (NCI-H2085; first compound 0.5 µM) was 0.516.
